Test results: patent publication US11286268B1, “EIF4E-inhibiting compounds and methods” (EFFECTOR THERAPEUTICS, INC., priority 2019, dated 2022)
Like-named read-outs stand apart in the source and are kept apart here.

Assays:
recombinant eIF4E = recombinant eIF4E (Homo sapiens (Human), UniProt P06730); assay: Fluorescence polarization competition assay for eIF4E binding potency
Procedure, shortened: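 Protein and fluorescent cap-analog probe (EDA-m7GDP-ATTO-550) were mixed first for 5 min, after which serially diluted compound was added to final 75 nM eIF4E, 20 nM probe, 1% DMSO. Reactions equilibrated 30 min at room temperature before polarization was measured.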

MDA-MB-361 cells = assay: Cell proliferation assay (CELLTITER-GLO); format: cell-based; conditions: Homo sapiens, 144 h, 6 days of treatment; for IC50: CELLTITER-GLO, % of DMSO control
Experimental: MDA-MB-361 cells were maintained in DMEM supplemented with 10% FBS and 1× penicillin/streptomycin solution at […] in a CO2 incubator. For cell proliferation assays, exponentially growing cells were seeded at 2,000 cells per well in 96-well flat bottom white polystyrene plates (ThermoFisher) and cultured overnight. The following day, compound was added in a 9 point 3-fold dilution series starting from a top concentration of 1 or 10 μM (as indicated) together with a DMSO control. The final DMSO concentration in samples was 0.1%.
Cells were incubated for up to 6 […] at 37° C. in a CO2 incubator. Baseline viability of untreated cells was measured on the day of treatment and proliferation was measured after 6 […] of treatment using CELLTITER-GLO® reagent from Promega (Madison, Wis.) according to the manufacturer's instructions. Response to compound was calculated relative to the DMSO control (% of control) using the formula, % of control (DMSO)=[(CTGcells+inhibitor)/(CTGDMSO control)]×100. Data were plotted using Prism (GraphPad software), and IC50 and Emax values were calculated from a 4 parameter, variable slope non-linear regression model. Results are shown below and in FIGS. 1-3.

[1] = fluorescence polarization competition, 75 nM recombinant eIF4E, 20 nM EDA-m7GDP-ATTO-550, IC50 class, read-out: elF4E FP
[2] = inhibition of eIF4E/EDA-m7GDP-ATTO-550 binding by 50%, Table 4B calculated values, read-out: IC50
[3] = inhibition of eIF4E/EDA-m7GDP-ATTO-550 binding, calculated IC50 values, Table 4B, read-out: IC50

Chain of recombinant eIF4E (P06730 whole entry): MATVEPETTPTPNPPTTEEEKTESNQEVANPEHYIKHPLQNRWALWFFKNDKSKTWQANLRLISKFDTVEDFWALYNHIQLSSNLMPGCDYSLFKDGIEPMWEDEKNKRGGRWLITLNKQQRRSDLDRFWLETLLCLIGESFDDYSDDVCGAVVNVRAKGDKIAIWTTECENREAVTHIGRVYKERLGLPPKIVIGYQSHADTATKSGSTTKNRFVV

Row | Structure (SMILES) | IC50 (recombinant eIF4E; [3]) | further results
1 | Cc1cc(-c2cc(Cl)ccc2OCCn2c(C)nc3cc(C(F)(F)F)c(N4CCN(C)CC4)c(C#N)c3c2=O)c2scc(C(=O)O)c2n1 [compound 634, 7-(5-chloro-2-(2-(5-cyano-2-methyl-6-(4-methylpiperazin-1-yl)-4-oxo-7-(trifluoromethyl)quinazolin-3(4H)-yl)ethoxy)phenyl)-5-methylthieno[3,2-b]pyridine-3-carboxylic acid] | – | IC50 (recombinant eIF4E; [1]): < 50 nM; IC50 (recombinant eIF4E; [2]): 5.62 nM; IC50 (MDA-MB-361 cells): 3.8 nM
2 | Cc1nc2cnc(N(C)C3CCN(CC(C)(F)F)CC3)c(C#N)c2c(=O)n1CC#Cc1ccc(Cl)cc1-c1ccnc2c(C(=O)O)csc12 [compound 1141, 7-(5-chloro-2-(3-(5-cyano-6-((1-(2,2-difluoropropyl)piperidin-4-yl)(methyl)amino)-2-methyl-4-oxopyrido[3,4-d]pyrimidin-3(4H)-yl)prop-1-yn-1-yl)phenyl)thieno[3,2-b]pyridine-3-carboxylic acid] | – | IC50 (recombinant eIF4E; [1]): < 50 nM; IC50 (recombinant eIF4E; [2]): 18.9 nM; IC50 (MDA-MB-361 cells): 361 nM
3 | Cc1nc2cnc(N(C)C3CCN(C4CC(F)(F)C4)CC3)c(C#N)c2c(=O)n1CC#Cc1ccc(Cl)cc1-c1ccnc2c(C(=O)NS(C)(=O)=O)csc12 [compound 1188, 7-(5-chloro-2-(3-(5-cyano-6-((1-(3,3-difluorocyclobutyl)piperidin-4-yl)(methyl)amino)-2-methyl-4-oxopyrido[3,4-d]pyrimidin-3(4H)-yl)prop-1-yn-1-yl)phenyl)-N-(methylsulfonyl)thieno[3,2-b]pyridine-3-carboxamide] | – | IC50 (recombinant eIF4E; [1]): < 50 nM; IC50 (recombinant eIF4E; [2]): 12.4 nM; Emax (MDA-MB-361 cells; 4 parameter non-linear regression): 90.2%; IC50 (MDA-MB-361 cells): 46.8 nM
4 | N#Cc1cc(Br)cc2ncn(CCOc3ccc(Cl)cc3-c3cccc(C(=O)O)c3)c(=O)c12 [compound 1988] | 49.5 nM | –
5 | N#Cc1cc(C#N)c2c(=O)n(CCOc3ccc(Cl)cc3-c3cccc(C(=O)O)c3)cnc2c1 [compound 1989] | 89 nM | –
6 | N#Cc1ccc(C#N)c2c(=O)n(CCOc3ccc(Cl)cc3-c3cccc(C(=O)O)c3)cnc12 [compound 1990] | 58.1 nM | –
7 | O=C(O)c1cccc(-c2cc(Cl)ccc2OCCn2nnc3ccccc3c2=O)c1 [compound 1991] | > 300000 nM | –
8 | O=C(O)c1cccc(-c2cc(Cl)ccc2OCCn2cnc3cnccc3c2=O)c1 [compound 1992] | 490 nM | –
9 | O=C(O)c1cccc(-c2cc(Cl)ccc2OCCn2cnc3c(C(F)(F)F)nccc3c2=O)c1 [compound 1993] | 412 nM | –
10 | N#Cc1cc(C(F)(F)F)cc2ncn(CCOc3ccc(Cl)cc3-c3cccc(C(=O)O)c3)c(=O)c12 [compound 1994] | 41.8 nM | –
11 | Cc1nc2cnc(C#N)cc2c(=O)n1CCOc1ccc(Cl)cc1-c1cccc(C(=O)O)c1 [compound 1995] | 59.3 nM | –
12 | N#Cc1cc2c(=O)n(CCOc3ccc(Cl)cc3-c3cccc(C(=O)O)c3)c(C(F)F)nc2cn1 [compound 1996] | 189 nM | –
13 | Cc1nc2c(C#N)nc(C#N)cc2c(=O)n1CCOc1ccc(Cl)cc1-c1cccc(C(=O)O)c1 [compound 1997] | 77.5 nM | –
14 | Cc1nc2cnc(CN)cc2c(=O)n1CCOc1ccc(Cl)cc1-c1cccc(C(=O)O)c1 [compound 1998] | 409 nM | –
15 | Cc1nc2cncc(Br)c2c(=O)n1CCOc1ccc(Cl)cc1-c1cccc(C(=O)O)c1 [compound 1999] | 482 nM | –
16 | O=C(O)c1cccc(-c2cc(Cl)ccc2OCCn2c(Nc3ccccc3)nc3c(O)nccc3c2=O)c1 [compound 2000] | 18200 nM | –
17 | O=C(O)c1cccc(-c2cc(Cl)ccc2OCCn2c(Nc3ccccc3)nc3c(Cl)nccc3c2=O)c1 [compound 2001] | 65800 nM | –
18 | Cc1nc2cnc(Nc3cc(F)cc(F)c3)cc2c(=O)n1CCOc1ccc(Cl)cc1-c1cccc(C(=O)O)c1 [compound 2002] | 259 nM | –
19 | Cc1nc2cnc(NC3CCCCC3)cc2c(=O)n1CCOc1ccc(Cl)cc1-c1cccc(C(=O)O)c1 [compound 2003] | 264 nM | –
20 | Cc1nc2cnc(Nc3ccccc3)cc2c(=O)n1CCOc1ccc(Cl)cc1-c1cccc(C(=O)O)c1 [compound 2004] | 639 nM | –
21 | Cc1nc2cnc(NC3CCCC3)cc2c(=O)n1CCOc1ccc(Cl)cc1-c1cccc(C(=O)O)c1 [compound 2005] | 364 nM | –
22 | CNc1cc2c(=O)n(CCOc3ccc(Cl)cc3-c3cccc(C(=O)O)c3)c(C)nc2cn1 [compound 2006] | 611 nM | –
23 | O=C(O)c1cccc(-c2cc(Cl)ccc2OCCn2c(C(F)(F)F)nc3cnc(Cl)cc3c2=O)c1 [compound 2007] | > 300000 nM | –
24 | O=C(O)c1cccc(-c2cc(Cl)ccc2OCCn2c(C(F)F)nc3cnc(Cl)cc3c2=O)c1 [compound 2008] | 96.1 nM | –
25 | O=C(O)c1cccc(-c2cc(Cl)ccc2OCCn2c(C(F)F)nc3cccc(Br)c3c2=O)c1 [compound 2009] | 2150 nM | –
26 | O=C(O)c1cccc(-c2cc(Cl)ccc2OCCn2c(C(F)F)nc3cncc(Br)c3c2=O)c1 [compound 2010] | 1190 nM | –

Second part, led by results:

Row | IC50 (recombinant eIF4E; [3]) | Structure (SMILES) | further results
27 | 529 nM | Cc1nc2ccc3c(c2c(=O)n1CCOc1ccc(Cl)cc1-c1cccc(C(=O)O)c1)C(=O)N(C)C3 [compound 2011] | –
28 | > 10000 nM | O=C(O)c1cc2ccc1CCCCCc1nc3cc(C(F)(F)F)cc(Br)c3c(=O)n1CCOc1ccc(Cl)cc1-2 [compound 2013] | –
29 | 12200 nM | O=C(O)c1cc(-c2cc(Cl)ccc2OCCn2nnc3ccccc3c2=O)ccn1 [compound 2014] | –
30 | 51.1 nM | Cc1nc2cc(C(F)(F)F)c(N3CC4(C3)CN(C3CC3)C4)c(C#N)c2c(=O)n1CCOc1ccc(Cl)cc1-c1ccnc2ccsc12 [compound 2015] | –
31 | 613 nM | Cc1nc2cc(C(F)(F)F)c(CN(C)C)c(C#N)c2c(=O)n1CCOc1ccc(Cl)cc1-c1ccnc2ccsc12 [compound 2016] | –
32 | 50.6 nM | N#Cc1cccc2nc(C(F)F)n(CCOc3ccc(Cl)cc3-c3cccc4c(C(=O)O)csc34)c(=O)c12 [compound 2017] | –
33 | 24.4 nM | Cc1nc2cc(C(F)(F)F)cc(C#N)c2c(=O)n1CCOc1ccc(Cl)cc1-c1ccc(F)c2c(C(=O)O)csc12 [compound 2018] | –
34 | 33 nM | Cc1nc2cnc(N3CCN(C)C4CC43)c(C#N)c2c(=O)n1CCOc1ccc(Cl)cc1-c1cccc2c(C(=O)O)csc12 (stereo not shown) [compound 2020] | –
35 | > 1000 nM | Cc1cc(-c2cc(CN3CCN(C)CC3)ccc2OCCn2c(C)nc3cc(F)c(CN4CCN(C)CC4)c(C#N)c3c2=O)c2scc(C(=O)O)c2n1 [compound 2027] | –
36 | 6.2 nM | C#Cc1c(-c2cc(Cl)ccc2OCCn2c(C(F)F)nc3cccc(C#N)c3c2=O)csc1C(=O)O [compound 2034] | –
37 | 72.3 nM | N#Cc1cccc2nc(C(F)F)n(CCOc3ccc(Cl)cc3-c3ccnc4c(C(=O)O)scc34)c(=O)c12 [compound 2035] | –
38 | 38.4 nM | Cc1cc(-c2cc(N3CC(F)(F)C3)ccc2OCCn2c(C)nc3cc(C(F)(F)F)c(N4CC(F)(F)C4)c(C#N)c3c2=O)c2scc(C(=O)O)c2n1 [compound 2036] | –
39 | > 1000 nM | COC(=O)c1sc2c(-c3cc(Cl)ccc3OCCn3c(C)nc4cc(C(F)(F)F)cc(C#N)c4c3=O)ccnc2c1O [compound 2037] | –
